Measurements from US10526330B2, “JAK kinase inhibitor compounds for treatment of respiratory disease” (THERAVANCE BIOPHARMA R&D IP, LLC, priority 2015, dated 2020).
Each block holds one molecule with its values, some of them ahead of it.

Tests used:
[1] = Pharmacokinetics in plasma and lung in mouse; assay type: in vivo; conditions: oral aspiration, lung AUC (μg hr/g) to plasma AUC (μg hr/mL)
Description: Plasma and lung levels of test compounds and ratios thereof were determined in the following manner. BALB/c mice from Charles River Laboratories were used in the assay. Test compounds were individually formulated in 20% propylene glycol in pH 4 citrate buffer at a concentration of 0.2 mg/mL and 50 uL of the dosing solution was introduced into the trachea of a mouse by oral aspiration. At various time points (typically 0.167, 2, 6, 24 hr) post dosing, blood samples were removed via cardiac puncture and intact lungs were excised from the mice. Blood samples were centrifuged (Eppendorf centrifuge, 5804R) for 4 minutes at approximately 12,000 rpm at 4° C. to collect plasma. Lungs were padded dry, weighed, and homogenized at a dilution of 1:3 in sterile water. Plasma and lung levels of test compound were determined by LC-MS analysis against analytical standards constructed into a standard curve in the test matrix. A lung to plasma ratio was determined as the ratio of the lung AUC in μg hr/g to the plasma AUC in μg hr/mL, where AUC is conventionally defined as the area under the curve of test compound concentration vs. time.

JAK1 = JAK1 (Homo sapiens (Human), UniProt P23458); experiment: LanthaScreen JAK1 biochemical assay; conditions: versus Examples 1, 7, 13, 6
JAK1, sequence (P23458 whole entry): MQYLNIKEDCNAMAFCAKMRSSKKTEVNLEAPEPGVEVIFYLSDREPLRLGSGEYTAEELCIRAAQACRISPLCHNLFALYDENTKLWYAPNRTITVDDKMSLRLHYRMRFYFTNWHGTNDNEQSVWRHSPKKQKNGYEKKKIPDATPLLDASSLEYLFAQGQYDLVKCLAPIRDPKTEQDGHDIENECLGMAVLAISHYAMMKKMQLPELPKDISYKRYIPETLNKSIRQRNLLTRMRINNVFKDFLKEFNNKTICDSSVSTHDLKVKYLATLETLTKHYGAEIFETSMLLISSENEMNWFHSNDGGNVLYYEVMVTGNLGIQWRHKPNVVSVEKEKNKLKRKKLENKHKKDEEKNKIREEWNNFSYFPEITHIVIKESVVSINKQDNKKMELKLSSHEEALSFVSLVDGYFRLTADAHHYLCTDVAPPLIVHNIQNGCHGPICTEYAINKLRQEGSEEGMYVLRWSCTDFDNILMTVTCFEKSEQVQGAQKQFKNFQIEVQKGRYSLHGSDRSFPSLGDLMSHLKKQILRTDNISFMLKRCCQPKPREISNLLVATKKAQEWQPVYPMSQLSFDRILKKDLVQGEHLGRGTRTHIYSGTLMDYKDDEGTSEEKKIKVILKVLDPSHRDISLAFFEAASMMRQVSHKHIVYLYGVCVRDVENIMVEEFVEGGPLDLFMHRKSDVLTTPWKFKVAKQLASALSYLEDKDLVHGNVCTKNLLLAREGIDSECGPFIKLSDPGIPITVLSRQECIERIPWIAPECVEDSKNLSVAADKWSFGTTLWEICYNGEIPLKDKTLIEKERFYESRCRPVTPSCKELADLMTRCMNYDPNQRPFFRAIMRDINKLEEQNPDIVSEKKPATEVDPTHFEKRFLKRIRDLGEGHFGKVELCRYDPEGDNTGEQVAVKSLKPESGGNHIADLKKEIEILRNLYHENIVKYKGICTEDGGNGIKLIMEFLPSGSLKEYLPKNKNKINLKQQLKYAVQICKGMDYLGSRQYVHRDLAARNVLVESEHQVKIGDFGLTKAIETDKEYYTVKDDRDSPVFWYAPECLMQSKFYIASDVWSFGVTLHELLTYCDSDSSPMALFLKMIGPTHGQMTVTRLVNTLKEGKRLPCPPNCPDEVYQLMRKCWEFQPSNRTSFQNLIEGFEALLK

IL-13 induced pSTAT6 = experiment: Murine model of IL-13 induced pSTAT6 induction in lung tissue; assay type: in vivo; conditions: mouse lung; for lung concentration smaller than that of the corresponding compound of the invention by a factor: pharmacodynamic assay, versus Examples 1, 7, 13, 6
Description: Il-13 is an important cytokine underlying the pathophysiology of asthma (Kudlacz et al. Eur. J. Pharmacol, 2008, 582, 154-161). IL-13 binds to cell surface receptors activating members of the Janus family of kinases (JAK) which then phosphorylate STAT6 and subsequently activates further transcription pathways. In the described model, a dose of IL-13 was delivered locally into the lungs of mice to induce the phosphorylation of STAT6 (pSTAT6) which is then measured as the endpoint.
Adult balb/c mice from Harlan were used in the assay. On the day of study, animals were lightly anesthetized with isoflurane and administered either vehicle or test compound (0.5 mg/mL, 50 μL total volume over several breaths) via oral aspiration. Animals were placed in lateral recumbency post dose and monitored for full recovery from anesthesia before being returned to their home cage. Four hours later, animals were once again briefly anesthetized and challenged with either vehicle or IL-13 (0.03 μg total dose delivered, 50 μL total volume) via oral aspiration before being monitored for recovery from anesthesia and returned to their home cage. One hour after vehicle or IL-13 administration, lungs were collected for both pSTAT6 detection using an anti-pSTAT6 ELISA (rabbit mAb capture/coating antibody; mouse mAb detection/report antibody: anti-pSTAT6-pY641; secondary antibody: anti-mouse IgG-HRP) and analyzed for total drug concentration as described above in Assay 4.
Selected compounds of the invention were tested in the assay. Activity in the model is evidenced by a decrease in the level of pSTAT6 present in the lungs of treated animals at 5 hours compared to the vehicle treated, IL-13 challenged control animals. The difference between the control animals which were vehicle-treated, IL-13 challenged and the control animals which were vehicle-treated, vehicle challenged dictated the 0% and 100% inhibitory effect, respectively, in any given experiment.

[2] = test system: IL-13 induced STAT6 phosphorylation in BEAS-2B human lung epithelial cells; experiment: AlphaScreen JAK1 cellular potency assay in BEAS-2B cells; assay type: cell-based
[3] = Dynamic moisture sorption assessment; assay type: physicochemical
Description: Dynamic moisture sorption (DMS) measurement was performed using a VTI atmospheric microbalance, SGA-100 system (VTI Corp., Hialeah, Fla. 33016). A weighed sample was used and the humidity was lowest possible value (close to 0% RH) at the start of the analysis. The DMS analysis consisted of an initial drying step (˜0% RH) for 120 minutes, followed by two cycles of sorption and desorption with a scan rate of 5% RH/step over the humidity range of 5% RH to 90% RH. The DMS run was performed isothermally at 25° C.

Lung to Plasma ratio Assay 4 [1]: A (A denotes a ratio >100)
SMILES: CCc1cc(O)c(F)cc1-c1ccc2c(-c3nc4c([nH]3)CCN(CCN3CCC[C@@H]3C)C4)n[nH]c2c1 [Example 15, (S)-5-ethyl-2-fluoro-4-(3-(5-(2-(2-methylpyrrolidin-1-yl)ethyl)-4,5,6,7-tetrahydro-1H-imidazo[4,5-c]pyridin-2-yl)-1H-indazol-6-yl)phenol]

SMILES: CCc1cc(O)c(F)cc1-c1ccc2c(-c3nc4c([nH]3)CCN(C3CCC(C)CC3)C4)n[nH]c2c1 (centres unmarked) [Example C-4]
fold less potent than the corresponding compound of the invention in the enzyme assay (JAK1): 2.5 fold
lung concentration smaller than that of the corresponding compound of the invention by a factor (IL-13 induced pSTAT6): 23

SMILES: CCc1cc(O)c(F)cc1-c1ccc2c(-c3nc4c([nH]3)CCN(CCNC3CC(OC)C3)C4)n[nH]c2c1 (centres unmarked) [Example 3-30]
BEAS-2B pIC50 [2]: A (A represents a pIC50 value ≥8 (IC50≤10 nM))

Lung to Plasma ratio Assay 4 [1]: A (A denotes a ratio >100)
SMILES: CCc1cc(O)c(F)cc1-c1ccc2c(-c3nc4c([nH]3)CCN(CCN(C)CC(C)C)C4)n[nH]c2c1 [Example 3-33]

SMILES: CCc1cc(O)c(F)cc1-c1ccc2c(-c3nc4c([nH]3)CCN(CCC(C)C)C4)n[nH]c2c1 [Example C-2]
fold less potent than the corresponding compound of the invention in the enzyme assay (JAK1): 3 fold
lung concentration smaller than that of the corresponding compound of the invention by a factor (IL-13 induced pSTAT6): 52

Lung to Plasma ratio Assay 4 [1]: A (A denotes a ratio >100)
SMILES: CCc1cc(O)c(F)cc1-c1ccc2c(-c3nc4c([nH]3)CCN(C[C@@H]3CCCN3C)C4)n[nH]c2c1 [Example 11, (S)-5-ethyl-2-fluoro-4-(3-(5-((1-methylpyrrolidin-2-yl)methyl)-4,5,6,7-tetrahydro-1H-imidazo[4,5-c]pyridin-2-yl)-1H-indazol-6-yl)phenol]

Lung to Plasma ratio Assay 4 [1]: A (A denotes a ratio >100)
SMILES: CCc1cc(O)c(F)cc1-c1ccc2c(-c3nc4c([nH]3)CCN(C[C@H]3COCCN3)C4)n[nH]c2c1 [Example 13, (S)-5-Ethyl-2-fluoro-4-(3-(5-(morpholin-3-ylmethyl)-4,5,6,7-tetrahydro-1H-imidazo[4,5-c]pyridin-2-yl)-1H-indazol-6-yl)phenol]

Lung to Plasma ratio Assay 4 [1]: A (A denotes a ratio >100)
SMILES: CCc1cc(O)c(F)cc1-c1ccc2c(-c3nc4c([nH]3)CCN(C[C@@H]3COCCN3)C4)n[nH]c2c1 [Example 14, (R)-5-Ethyl-2-fluoro-4-(3-(5-(morpholin-3-ylmethyl)-4,5,6,7-tetrahydro-1H-imidazo[4,5-c]pyridin-2-yl)-1H-indazol-6-yl)phenol]

SMILES: CCc1cc(O)c(F)cc1-c1ccc2c(-c3nc4c([nH]3)CCN(CCNC3(C#N)CC3)C4)n[nH]c2c1 [Example 3-1]
pSTAT6 inhibition in the pharmacodynamic assay (IL-13 induced pSTAT6): noted as exceptions

SMILES: CCc1cc(O)c(F)cc1-c1ccc2c(-c3nc4c([nH]3)CCN(C3CC(C)C3)C4)n[nH]c2c1 (centres unmarked) [Example C-1, 5-Ethyl-2-fluoro-4-(3-(5-(3-methylcyclobutyl)-4,5,6,7-tetrahydro-1H-imidazo[4,5-c]pyridin-2-yl)-1H-indazol-6-yl)phenol]
fold less potent than the corresponding compound of the invention in the enzyme assay (JAK1): 2 fold
lung concentration smaller than that of the corresponding compound of the invention by a factor (IL-13 induced pSTAT6): 36

Lung to Plasma ratio Assay 4 [1]: A (A denotes a ratio >100)
SMILES: CCc1cc(O)c(F)cc1-c1ccc2c(-c3nc4c([nH]3)CCN(CCNC3CC(OC)C3)C4)n[nH]c2c1 (centres unmarked) [Example 8, 5-Ethyl-2-fluoro-4-(3-(5-(2-((3-methoxycyclobutyl)amino)ethyl)-4,5,6,7-tetrahydro-1H-imidazo[4,5-c]pyridin-2-yl)-1H-indazol-6-yl)phenol]

hygroscopicity [3]: non-hygroscopic
weight gain (dynamic moisture sorption) ([3]; 5% to 90% relative humidity, 25° C.): less than 0.12%
SMILES: CCc1cc(O)c(F)cc1-c1ccc2c(-c3nc4c([nH]3)CCN(C3CCN(C)CC3)C4)n[nH]c2c1 [crystalline hydrate, 5-ethyl-2-fluoro-4-(3-(5-(1-methylpiperidin-4-yl)-4,5,6,7-tetrahydro-1H-imidazo[4,5-c]pyridin-2-yl)-1H-indazol-6-yl)phenol]

SMILES: CCc1cc(O)c(F)cc1-c1ccc2c(-c3nc4c([nH]3)CCN(CC3CCCOC3)C4)n[nH]c2c1 (centres unmarked) [Example C-3]
fold less potent than the corresponding compound of the invention in the enzyme assay (JAK1): 6 fold
lung concentration smaller than that of the corresponding compound of the invention by a factor (IL-13 induced pSTAT6): 13

Lung to Plasma ratio Assay 4 [1]: A (A denotes a ratio >100)
SMILES: CCc1cc(O)c(F)cc1-c1ccc2c(-c3nc4c([nH]3)CCN(CC3CNC3)C4)n[nH]c2c1 [Example 14-7]

SMILES: CCc1cc(O)c(F)cc1-c1ccc2c(-c3nc4c([nH]3)CCN(C3CN(C5CCS(=O)(=O)C5)C3)C4)n[nH]c2c1 (centres unmarked) [Example 1-15]
pSTAT6 inhibition in the pharmacodynamic assay (IL-13 induced pSTAT6): noted as exceptions
